Measured values published in ChEMBL document CHEMBL2401685 (Bioorg Med Chem Lett, 2013).
Activity calls are given as the source filed them. The calls are words filed in the database; no cut-off is given here.

Columns and labels:
[1] = molecular target: T1, 11-beta-hydroxysteroid dehydrogenase type 2 (Homo sapiens) (UniProt P80365); assay: Inhibition of 11beta-HSD2 in human kidney microsomes using [3H]-cortisol as substrate assessed as formation of cortisone at 100 uM after 30 mins by radiometric analysis relative to control; details: Microsome
T1 sequence (whole entry): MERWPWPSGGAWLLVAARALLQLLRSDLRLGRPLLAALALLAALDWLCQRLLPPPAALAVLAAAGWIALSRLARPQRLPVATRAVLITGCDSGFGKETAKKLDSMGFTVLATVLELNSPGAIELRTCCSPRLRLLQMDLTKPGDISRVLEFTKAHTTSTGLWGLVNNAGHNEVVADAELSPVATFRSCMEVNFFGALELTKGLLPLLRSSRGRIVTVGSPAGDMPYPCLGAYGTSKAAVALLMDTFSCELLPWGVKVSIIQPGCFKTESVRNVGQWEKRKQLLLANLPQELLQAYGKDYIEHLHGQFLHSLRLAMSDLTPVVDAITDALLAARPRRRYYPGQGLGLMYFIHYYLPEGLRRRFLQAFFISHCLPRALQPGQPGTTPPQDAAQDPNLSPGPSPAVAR

[2] = molecular target: T2, 11-beta-hydroxysteroid dehydrogenase 1 (Homo sapiens, UniProt P28845); assay: Inhibition of 11beta-HSD1 in human liver microsomes using [3H]-cortisone as substrate assessed as formation of cortisol at 100 uM after 60 to 90 mins by radiometric analysis relative to control; details: Microsome
Target sequence in this assay (P28845 whole entry, looked up): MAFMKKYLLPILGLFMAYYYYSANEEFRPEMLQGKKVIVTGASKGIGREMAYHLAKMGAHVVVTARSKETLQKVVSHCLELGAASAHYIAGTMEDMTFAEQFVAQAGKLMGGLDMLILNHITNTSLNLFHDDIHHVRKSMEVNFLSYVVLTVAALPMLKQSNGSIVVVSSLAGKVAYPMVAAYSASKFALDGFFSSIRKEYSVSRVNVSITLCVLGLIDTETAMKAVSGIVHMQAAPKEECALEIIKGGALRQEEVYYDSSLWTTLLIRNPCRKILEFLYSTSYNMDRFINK

[3] = molecular target: 11-beta-hydroxysteroid dehydrogenase 1 (Rattus norvegicus) (UniProt P16232); assay: Inhibition of 11beta-HSD1 in rat testis microsomes using [3H]-11-DHC as substrate assessed as formation of CORT at 100 uM after 60 to 90 mins by radiometric analysis relative to control; details: Microsome
11-beta-hydroxysteroid dehydrogenase 1 (Rattus norvegicus), sequence (P16232 whole entry, looked up): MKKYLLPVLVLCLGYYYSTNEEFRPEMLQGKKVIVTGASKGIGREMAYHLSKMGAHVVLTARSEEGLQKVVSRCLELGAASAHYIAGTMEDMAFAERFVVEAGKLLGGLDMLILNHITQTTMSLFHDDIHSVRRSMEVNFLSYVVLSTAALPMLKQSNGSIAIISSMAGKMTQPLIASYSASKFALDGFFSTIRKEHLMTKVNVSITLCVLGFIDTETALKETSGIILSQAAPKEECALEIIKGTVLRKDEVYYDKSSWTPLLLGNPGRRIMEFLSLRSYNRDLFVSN

[4] = molecular target: T2, 11-beta-hydroxysteroid dehydrogenase 1; assay: Inhibition of human 11beta-HSD1 transfected in CHOP cells at 100 uM relative to control; type: cell-based
Target sequence in this assay (P28845 whole entry, looked up): as the sequence (P28845 whole entry, looked up) above

[5] = molecular target: T3, 11-beta-hydroxysteroid dehydrogenase type 2 (Rattus norvegicus) (UniProt P50233); assay: Inhibition of 11beta-HSD2 in rat kidney microsomes using [3H]-CORT as substrate assessed as formation of 11-DHC at 100 uM after 30 mins by radiometric analysis relative to control; details: Microsome
T3 sequence (whole entry): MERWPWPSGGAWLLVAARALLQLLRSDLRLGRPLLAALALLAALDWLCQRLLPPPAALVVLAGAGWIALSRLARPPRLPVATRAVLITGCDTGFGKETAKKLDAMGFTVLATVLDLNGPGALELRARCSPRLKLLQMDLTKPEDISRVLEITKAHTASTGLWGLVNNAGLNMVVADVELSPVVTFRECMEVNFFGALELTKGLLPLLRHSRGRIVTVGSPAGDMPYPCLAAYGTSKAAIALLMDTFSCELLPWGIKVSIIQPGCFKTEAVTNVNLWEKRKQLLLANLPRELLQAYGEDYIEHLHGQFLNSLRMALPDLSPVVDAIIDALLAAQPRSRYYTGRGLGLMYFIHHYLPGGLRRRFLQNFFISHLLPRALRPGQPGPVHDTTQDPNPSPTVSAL

[6] = molecular target: 11-beta-hydroxysteroid dehydrogenase 1 (Rattus norvegicus) (UniProt P16232); assay: Inhibition of 11beta-HSD1 in Sprague-Dawley rat leydig cells […] relative to control; details: 100 uM
[7] = molecular target: T2, 11-beta-hydroxysteroid dehydrogenase 1; assay: Inhibition of human 11beta-HSD1 transfected in CHOP cells; type: cell-based
Target sequence in this assay (P28845 whole entry): as the sequence (P28845 whole entry, looked up) above

[8] = molecular target: T2, 11-beta-hydroxysteroid dehydrogenase 1; assay: Ratio of curcumin IC50 to compound IC50 for human 11beta-HSD1 transfected in CHOP cells; type: cell-based
Target sequence in this assay (P28845 whole entry, looked up): as the sequence (P28845 whole entry, looked up) above

[9] = molecular target: T4, 11-beta-hydroxysteroid dehydrogenase 1 (Rattus norvegicus, UniProt P16232); assay: Inhibition of 11beta-HSD1 in Sprague-Dawley rat leydig cells […]
T4 sequence (P16232 whole entry): as the sequence (P16232 whole entry, looked up) above

J774.A1 = assay: Antiinflammatory activity in mouse J774A1 cells assessed as LPS-induced TNFalpha production at 10 uM incubated 2 hrs prior to LPS challenge measured after 24 hrs by ELISA relative to vehicle-treated control; type: functional
[10] = molecular target: T4, 11-beta-hydroxysteroid dehydrogenase 1; assay: Inhibition of 11beta-HSD1 in rat testis microsomes using [3H]-11-DHC as substrate assessed as formation of CORT after 60 to 90 mins by radiometric analysis; parameters: species or system Microsome
[11] = molecular target: T2, 11-beta-hydroxysteroid dehydrogenase 1; assay: Inhibition of 11beta-HSD1 in human liver microsomes using [3H]-cortisone as substrate assessed as formation of cortisol after 60 to 90 mins by radiometric analysis; parameters: species or system Microsome
Target sequence in this assay (P28845 whole entry): as the sequence (P28845 whole entry, looked up) above

Structure (SMILES)	inhibition [1] [%]	inhibition [2] [%]	inhibition [3] [%]	inhibition [4] [%]	inhibition [5] [%]	inhibition [6] [%]	IC50 [7] [nM]	Ratio IC50 [8]	IC50 [9] [nM]	inhibition (J774.A1)	IC50 [10] [nM]	IC50 [11] [nM]
C=CCOc1ccc(/C=C2\CCC/C(=C\c3ccc(OCC=C)cc3)C2=O)cc1	6	18	19	18	23	8	–	–	–	–	–	–
O=C(/C=C/c1ccc(F)cc1)/C=C/c1ccc(F)cc1	26	37	2	–	22	–	507	9	229	inactive	–	–
COc1cc(/C=C2\CC/C(=C\c3ccc(OC4CCCCO4)c(OC)c3)C2=O)ccc1OC1CCCCO1 (configuration not stated)	0	26	13	26	11	18	–	–	–	inactive	–	–
COc1cc(/C=C2\CC/C(=C\c3ccc(O)c(OC)c3)C2=O)ccc1O	13	49	52	17	34	19	–	–	–	–	–	–
C=CCOc1ccc(/C=C2\CC/C(=C\c3ccc(OCC=C)c(OC)c3)C2=O)cc1OC	10	13	14	31	0	17	–	–	–	–	–	–
COc1cc(/C=C/C(=O)/C=C/c2ccc(OC3CCCCO3)c(OC)c2)ccc1OC1CCCCO1 (configuration not stated)	0	28	19	28	16	–	–	–	52500	–	–	–
O=C1/C(=C/c2ccc(OC3CCCCO3)cc2)CCC/C1=C\c1ccc(OC2CCCCO2)cc1 (configuration not stated)	17	14	45	28	48	28	–	–	–	inactive	–	–
C=CCOc1ccc(/C=C/C(=O)/C=C/c2ccc(OCC=C)c(OC)c2)cc1OC	13	14	9	1	19	18	–	–	–	–	–	–
COc1cc(/C=C/C(=O)/C=C/c2cc(OC)c(OC)c(OC)c2)cc(OC)c1OC	1	16	0	40	11	5	–	–	–	inactive	–	–
C=CCOc1ccc(/C=C2\CCC/C(=C\c3ccc(OCC=C)c(OC)c3)C2=O)cc1OC	6	7	15	16	8	6	–	–	–	–	–	–
COc1cc(/C=C2\CCC/C(=C\c3ccc(OC4CCCCO4)c(OC)c3)C2=O)ccc1OC1CCCCO1 (configuration not stated)	6	37	–	40	14	8	–	–	–	–	65400	–
CCOc1ccc(/C=C/C(=O)/C=C/c2ccc(OCC)cc2)cc1	8	36	7	9	27	–	–	–	9950	–	–	–
O=C1/C(=C/c2ccc(OC3CCCCO3)cc2)CC/C1=C\c1ccc(OC2CCCCO2)cc1 (configuration not stated)	0	30	11	9	13	22	–	–	–	inactive	–	–
CN(C)c1ccc(/C=C2\CC/C(=C\c3ccc(N(C)C)cc3)C2=O)cc1	0	15	0	16	1	13	–	–	–	inactive	–	–
O=C1/C(=C/c2ccc(O)cc2)CCC/C1=C\c1ccc(O)cc1	0	–	63	–	24	–	195	5	633	–	–	1940
O=C(/C=C/c1ccc(O)cc1)/C=C/c1ccc(O)cc1	44	–	41	–	7	–	832	5	986	–	–	4420
O=C(/C=C/c1ccc(OC2CCCCO2)cc1)/C=C/c1ccc(OC2CCCCO2)cc1 (configuration not stated)	13	36	13	54	24	–	–	–	17200	inactive	–	–
O=C1/C(=C/c2cccc(Br)c2)CC/C1=C\c1cccc(Br)c1	23	–	–	–	3	–	97	9	1150	–	599	3510
O=C1/C(=C/c2ccc(O)cc2)CC/C1=C\c1ccc(O)cc1	0	39	32	12	17	21	–	–	–	–	–	–
COc1cc(/C=C2\CCC/C(=C\c3cc(OC)c(OC)c(OC)c3)C2=O)cc(OC)c1OC	13	21	35	14	23	42	–	–	–	inactive	–	–
CCOc1ccc(/C=C2\CCC/C(=C\c3ccc(OCC)cc3)C2=O)cc1	11	17	17	16	14	26	–	–	–	–	–	–
C=CCOc1ccc(/C=C/C(=O)/C=C/c2ccc(OCC=C)cc2)cc1	2	35	0	4	16	22	–	–	–	–	–	–
CN(C)CCCOc1ccc(/C=C2\CC/C(=C\c3ccc(OCCCN(C)C)cc3)C2=O)cc1	24	15	2	49	12	–	–	–	4170	–	–	–
COc1cc(/C=C2\CC/C(=C\c3cc(OC)c(OC)c(OC)c3)C2=O)cc(OC)c1OC	5	16	12	31	9	18	–	–	–	inactive	–	–
O=C1/C(=C/c2ccccc2Br)CC/C1=C\c1ccccc1Br	36	–	–	–	22	–	144	9	1450	–	2880	6110
CN(C)c1ccc(/C=C2\CCC/C(=C\c3ccc(N(C)C)cc3)C2=O)cc1	21	14	16	26	20	37	–	–	–	inactive	–	–
CN(C)c1ccc(/C=C/C(=O)/C=C/c2ccc(N(C)C)cc2)cc1	0	24	0	29	13	10	–	–	–	inactive	–	–
C=CCOc1ccc(/C=C2\CC/C(=C\c3ccc(OCC=C)cc3)C2=O)cc1	0	28	9	23	15	10	–	–	–	–	–	–
O=C1/C(=C/c2cccc(C(F)(F)F)c2F)CC/C1=C\c1cccc(C(F)(F)F)c1F	0	23	2	24	5	22	–	–	–	–	–	–
COc1cc(/C=C/C(=O)/C=C/c2ccc(O)c(OC)c2)ccc1O	39	–	–	–	35	–	257	5	292	–	16100	70900
